Publication PMC11637483, “Dissecting caspase-2-mediated cell death: from intrinsic PIDDosome activation to chemical modulation” (Protein & Cell, 2024)

Assays:
[1] = system: caspase-2 interdomain linker mutants in HeLa TKO cells; assay: Cell death and caspase-2 activation in HeLa TKO cells expressing caspase-2 linker mutants; type: cell-based
Text: Figure 4. HUHS015 activates human caspase-2 directly through specific targeting of the interdomain linker of caspase-2. (A) The direct binding between HUHS015-36 and MBP-fused human caspase-2 pro-domain was detected by microscale thermophoresis (MST). MST profiles for raw binding signals and affinity (KD) measurement are shown. The calculated dissociation constant (KD) is expressed as means ± s.d. from two determinations. (B) Sequence alignment of the pro-domain (residues 1–169) of human and mouse caspase-2. CARD domain annotation is shown on top of the sequences. Identical residues are in red background and conserved ones are in red. Numbers of starting residues are indicated on the left. Different residues in the interdomain linker (residues 122–169) were highlighted with green color. (C) HUHS015 activates human but not mouse caspase-2. HeLa TKO cells rescued with human or mouse caspase-2 expression were treated with HUHS015 for the indicated time. ATP-based cell viability and immunoblotting detecting caspase-2 processing are shown. […] ATP-based cell viability in panels (C–E) is expressed as mean ± s.d. from three technical replicates. […] TEXT PRINTED IN THE PICTURE: (A) HUHS015-36: MBP-CASP2(32–165) vs. HUHS015-36: KD (μmol/L): 22.05 ± 6.151; MBP vs. HUHS015-36: KD (μmol/L): Not detected […]

Hepa1-6 cells = assay: Cell death and caspase-2 processing in Hepa1-6 cells; type: cell-based, mouse; conditions: Hepa1-6, 8 h
Text: (§1) We further examined whether HUHS015-derived compounds could activate endogenous caspase-2 in human cells. […] Complementing the CASP2^−/− Jurkat cells with exogenous caspase-2 restored HUHS015-36-induced apoptosis, in which caspase-2 was expectedly processed (Fig. 5A and 5B). We also profiled caspase-2 expression in a panel of 10 mouse tumor cell lines and observed highly variable expression levels (Fig. 5C). […] In B16-F10 (melanoma), LLC1 (Lewis lung carcinoma), MB49 (bladder carcinoma), KPC (pancreatic ductal adenocarcinoma), and 4T1 (mammary carcinoma) cells, caspase-2 was expressed at much lower levels (Fig. 5C). In contrast, EMT6 (mammary carcinoma), EL4 (T lymphoblast), and Hepa1-6 (hepatoma) feature robust caspase-2 expression, much higher than in Jurkat cells (Fig. 5C).
(§2) Figure 5. HUHS015-36 activates endogenous caspase-2 to induce apoptosis in Jurkat cells but not mouse cells. (A and B) HUHS015-36 activates endogenous caspase-2 and induces apoptosis in human Jurkat cells. […] Lysates of 10 mouse cancer cell lines were analyzed by immunoblotting using indicated antibodies. […] ATP cell viability (A and D) is expressed as mean ± s.d. from three technical replicates. […]
(§3) Cell viability was measured by the ATP assay using the CellTiter-Glo® Luminescent Cell Viability Assay kit (Promega).

Jurkat cells = assay: Cell death and caspase-2 processing in Jurkat cells (endogenous caspase-2); type: cell-based, human; conditions: 8 h
Text: as §1
as §2, with “mouse” for “mouse cells. (A and B) HUHS015-36 activates endogenous caspase-2 and induces apoptosis in human Jurkat”
as §3
To stimulate caspase-2 activation, PIDD1-CC controlled by a Tet-On inducible system was introduced into indicated cells. […] Cell lysates were analyzed by standard immunoblotting.

MBP = MBP (Escherichia coli, UniProt P0AEX9); assay: MicroScale Thermophoresis binding to MBP alone (control); conditions: MST
Text: The above results prompted us to reason whether HUHS015-36 could directly target caspase-2 for activation without the requirement of any other mediator. To directly test this hypothesis, we tried to obtain purified caspase-2 protein. The preparation of full-length caspase-2 protein is known to be technically challenging. Meanwhile, the CARD domain of a caspase often plays the role in sensing upstream signals, as exemplified by the CARD of caspase-2 that is recruited by RAIDD through the CARD–CARD interaction for assembling the PIDDosome. […]
Figure 4. […] (A) The direct binding between HUHS015-36 and MBP-fused human caspase-2 pro-domain was detected by microscale thermophoresis (MST). […] The calculated dissociation constant (KD) is expressed as means ± s.d. from two determinations. […] ATP-based cell viability in panels (C–E) is expressed as mean ± s.d. from three technical replicates. […] TEXT PRINTED IN THE PICTURE: (A) HUHS015-36: MBP-CASP2(32–165) vs. HUHS015-36: KD (μmol/L): 22.05 ± 6.151; MBP vs. HUHS015-36: KD (μmol/L): Not detected
MicroScale thermophoresis (MST) experiments were carried out at 25°C in the PBST Buffer (PBS with 0.05%, v/v Tween 20) by using a Monolith 2020 (TNG) (MM-208). […] The temperature-induced changes in fluorescence intensity of each sample in the capillary thermophoresis tubes were recorded by the Monolith instrument. […]

With `Cc1ccc2nc(-n3nc(C)c(Cc4ccccc4)c3O)[nH]c2c1` [HUHS015] the “caspase-2 activation and cell death” value ([1]; human caspase-2 with L150 and Y151 replaced by mouse P150 and H151, 5 h) was “abolished” and the “caspase-2 activation and apoptosis” value ([1]; mouse caspase-2 with P150 and H151 replaced by L150 and Y151, 5 h) was “capable of being activated”.
In the case of `Cc1cccc2nc(-n3nc4c(c3O)CCCC4)[nH]c12` [HUHS015-36], the “caspase-2 processing and cell death” value (Hepa1-6 cells) is reported as “no caspase-2 processing and cell death were detected”, the “caspase-2 processing and cell death” value (Jurkat cells; CASP2 knockout Jurkat cells) is reported as “completely diminished” and the “caspase-2 processing and cell death” value (Jurkat cells; WT Jurkat cells) is reported as “induced evident caspase-2 processing and cell death”. For the same compound, the KD (MBP) was “Not detected”.
